This passage reports Ki and IC50 results from ChEMBL document CHEMBL1129402, “Structure-based design of HIV protease inhibitors: 5,6-dihydro-4-hydroxy-2-pyrones as effective, nonpeptidic inhibitors” (J Med Chem, 1996).

For this assay, the target named is Human immunodeficiency virus type 1 protease (Human immunodeficiency virus 1, UniProt Q72874). As to the kind of experiment: HIV Protease inhibitory activity.

Usually Ki stands for the dissociation constant of the complex between target and ligand, obtained from inhibition or displacement. `CCCC1(c2ccccc2)CC(=O)C(C(CC)c2ccccc2)=C(O)O1` (centres undefined) displayed a Ki of 95 nM.

`CCC(C1=C(O)OC(CC)(c2ccccc2)CC1=O)c1ccccc1` (centres undefined) displayed a Ki of 160 nM.

One may read the IC50 as the point on the concentration scale where inhibition reaches its midpoint. Lower therefore signals greater potency. `CCC(C1=C(O)OC2(CCCCCCC2)CC1=O)c1ccccc1` (centres undefined) returned an IC50 of 3000 nM.

With `CCCC1(CCc2ccccc2)CC(=O)C(C(c2ccccc2)C2CC2)=C(O)O1` (centres undefined), the affinity corresponds to a Ki of 64 nM.

`CCC(C1=C(O)OC2(CCC(=O)CC2)CC1=O)c1ccccc1` (centres undefined) yielded an IC50 of more than 1000 nM.

Regarding `CCC(C1=C(O)OC(CC(C)C)(CC(C)C)CC1=O)c1ccccc1` (centres undefined), the midpoint of inhibition, the IC50, lay at 75000 nM.

With `CCC(C1=C(O)OC(Cc2ccccc2)(Cc2ccccc2)CC1=O)c1ccccc1` (centres undefined), the IC50 is more than 10000 nM.

Regarding `CCC(C1=C(O)OC(Cc2ccccc2)(c2ccccc2)CC1=O)c1ccccc1` (centres undefined), the IC50 was more than 10000 nM.

Turning to `CCC(C1=C(O)OC(c2ccccc2)(C2CCCCC2)CC1=O)c1cccc(O)c1` (centres undefined), affinity was put at a Ki of 610 nM.

`CCCC1(CCc2ccccc2)CC(=O)C(C(CC)c2ccccc2)=C(O)O1` (centres undefined): the Ki is 35 nM.

In turn, `C=CC(C1=C(O)OC(CCC)(CCc2ccccc2)CC1=O)c1ccccc1` (centres undefined) registered a Ki of 16 nM.

`CCC(C1=C(O)OC2(CCCCC2)CC1=O)c1ccccc1` (centres undefined) came in with an IC50 of 780 nM.

Regarding `CCCC1(CCC)CC(=O)C(C(c2ccccc2)C2CCCC2)=C(O)O1` (centres undefined), the inhibitory constant (Ki) was found to be 39 nM.

`CCCC1(CCc2ccccc2)CC(=O)C(C(/C=C/c2ccccc2)c2ccccc2)=C(O)O1` (centres undefined) displayed a Ki of 50 nM.

As for `CCCC1(CCC)CC(=O)C(C(CC)c2ccccc2)=C(O)O1` (centres undefined), the Ki was determined as 22 nM. This Ki lies about 2.3-fold lower than the previous one.

Take `CCCC1(CCc2ccccc2)CC(=O)C(C(c2ccccc2)C2CCCC2)=C(O)O1` (centres undefined): the Ki came to 59 nM.

Regarding `CCCC1(CCc2ccccc2)CC(=O)C(C(CCc2ccccc2)c2ccccc2)=C(O)O1` (centres undefined), the Ki was determined as 33 nM. Compared with the last compound, the Ki is about 1.8-fold lower.

`C=CC(C1=C(O)OC2(CCCCC2Cc2ccccc2)CC1=O)c1ccccc1` (centres undefined) displayed an IC50 of more than 1000 nM.

In the case of `C=CC(C1=C(O)OC2(CCOCC2)CC1=O)c1ccccc1` (centres undefined), the IC50 is more than 10000 nM.

As to `C=CC(C1=C(O)OC2(CCCCCC2)CC1=O)c1ccccc1` (centres undefined), the IC50 was more than 1000 nM.

Take `CCCCC1(Cc2ccccc2)CC(=O)C(C(CC)c2ccccc2)=C(O)O1` (centres undefined): the IC50 worked out at 3000 nM.

The compound `C=CC(C1=C(O)OC2(CCCC2)CC1=O)c1ccccc1` (centres undefined) registered an IC50 of 3000 nM.

For `CCCC1(CCC)CC(=O)C(C(c2ccccc2)C(C)(C)C)=C(O)O1` (centres undefined), the IC50 is more than 1000 nM.

Regarding `CCCC1(CCC)CC(O)=C(C(c2ccccc2)C2CC2)C(=O)O1` (centres undefined), the Ki is 15 nM.
